Consider two molecules from ChEMBL document CHEMBL5463725, “Data for DCP probe BAY-277” (2023).

Common to all, as to details: Compound concentration 10.0 uM
The target of assay [1] is Cyclin-dependent kinase-like 2 (Homo sapiens) (UniProt Q92772). The experiment in a line: Inhibition of CDKL2(h) at 10.0 µM in the Eurofins Kinase panel.
In assay [2] the target is Serine/threonine-protein kinase 38-like (Homo sapiens) (UniProt Q9Y2H1). The experiment in a line: Inhibition of NDR2(h) at 10.0 µM in the Eurofins Kinase panel.
Assay [3] concerns the target SRSF protein kinase 3 (Homo sapiens) (UniProt Q9UPE1). The experiment in a line: Inhibition of MSSK1(h) at 10.0 µM in the Eurofins Kinase panel.
Assay [4] has as its target PI3-kinase p110-delta/p85-alpha (Homo sapiens) (UniProt P27986+O00329). The experiment in a line: Inhibition of PI3 Kinase (p110d/p85a)(h) at 10.0 µM in the Eurofins Kinase panel. The format is protein-complex assay.
The target of assay [5] is Serine/threonine-protein kinase 38 (Homo sapiens) (UniProt Q15208). The experiment in a line: Inhibition of NDR1(h) at 10.0 µM in the Eurofins Kinase panel.
The target of assay [6] is Casein kinase II subunit alpha' (Homo sapiens) (UniProt P19784). The experiment in a line: Inhibition of CK2alpha2(h) at 10.0 µM in the Eurofins Kinase panel.
Assay [7] has as its target Dual specificity protein kinase CLK4 (Homo sapiens) (UniProt Q9HAZ1). The experiment in a line: Inhibition of CLK4(h) at 10.0 µM in the Eurofins Kinase panel.
The target in assay [8] is Glutamate NMDA receptor (Rattus norvegicus) (UniProt P35439+Q00959+Q00960+Q00961+Q62645+Q8VHN2+Q9R1M7). The experiment in a line: Inhibition of Glutamate, NMDA, Glycine at 10.0 µM in the Eurofins Panlabs Safety Screen. The format is protein-complex assay.
The target of assay [9] is Ribosomal protein S6 kinase alpha-5 (Homo sapiens) (UniProt O75582). The experiment in a line: Inhibition of MSK1(h) at 10.0 µM in the Eurofins Kinase panel.
The target of assay [10] is eIF-2-alpha kinase GCN2 (Homo sapiens) (UniProt Q9P2K8). The experiment in a line: Inhibition of GCN2(h) at 10.0 µM in the Eurofins Kinase panel.
The target of assay [11] is Calcium/calmodulin-dependent protein kinase type 1G (Homo sapiens) (UniProt Q96NX5). The experiment in a line: Inhibition of CaMKIgamma(h) at 10.0 µM in the Eurofins Kinase panel.
Assay [12] has as its target Calcium/calmodulin-dependent protein kinase type 1D (Homo sapiens) (UniProt Q8IU85). The experiment in a line: Inhibition of CaMKIdelta(h) at 10.0 µM in the Eurofins Kinase panel.
Assay [13] addresses Wee1-like protein kinase 2 (Homo sapiens) (UniProt P0C1S8). The experiment in a line: Inhibition of Wee1B(h) at 10.0 µM in the Eurofins Kinase panel.
For assay [14], the target named is 3-hydroxy-3-methylglutaryl-coenzyme A reductase (Homo sapiens) (UniProt P04035). The experiment in a line: Inhibition of HMG-CoA Reductase at 10.0 µM in the Eurofins Panlabs Safety Screen.
For assay [15], the target named is GABA transporter (Rattus norvegicus) (UniProt P31647+P23978+P31646+P48056). The experiment in a line: Inhibition of Transporter, GABA at 10.0 µM in the Eurofins Panlabs Safety Screen. It counts as protein assay.
Assay [16] has as its target Mitogen-activated protein kinase kinase kinase kinase 2 MAP4K2 (Homo sapiens) (UniProt Q12851). The experiment in a line: Inhibition of GCK at 10.0 µM in the Eurofins Kinase panel.
Assay [17] deals with Arachidonate 15-lipoxygenase B ALOX15B (Homo sapiens). The experiment in a line: Inhibition of Lipoxygenase 15-LOX-2 at 10.0 µM in the Eurofins Panlabs Safety Screen.

eIF-2-alpha kinase GCN2 (Homo sapiens), sequence (Q9P2K8 whole entry): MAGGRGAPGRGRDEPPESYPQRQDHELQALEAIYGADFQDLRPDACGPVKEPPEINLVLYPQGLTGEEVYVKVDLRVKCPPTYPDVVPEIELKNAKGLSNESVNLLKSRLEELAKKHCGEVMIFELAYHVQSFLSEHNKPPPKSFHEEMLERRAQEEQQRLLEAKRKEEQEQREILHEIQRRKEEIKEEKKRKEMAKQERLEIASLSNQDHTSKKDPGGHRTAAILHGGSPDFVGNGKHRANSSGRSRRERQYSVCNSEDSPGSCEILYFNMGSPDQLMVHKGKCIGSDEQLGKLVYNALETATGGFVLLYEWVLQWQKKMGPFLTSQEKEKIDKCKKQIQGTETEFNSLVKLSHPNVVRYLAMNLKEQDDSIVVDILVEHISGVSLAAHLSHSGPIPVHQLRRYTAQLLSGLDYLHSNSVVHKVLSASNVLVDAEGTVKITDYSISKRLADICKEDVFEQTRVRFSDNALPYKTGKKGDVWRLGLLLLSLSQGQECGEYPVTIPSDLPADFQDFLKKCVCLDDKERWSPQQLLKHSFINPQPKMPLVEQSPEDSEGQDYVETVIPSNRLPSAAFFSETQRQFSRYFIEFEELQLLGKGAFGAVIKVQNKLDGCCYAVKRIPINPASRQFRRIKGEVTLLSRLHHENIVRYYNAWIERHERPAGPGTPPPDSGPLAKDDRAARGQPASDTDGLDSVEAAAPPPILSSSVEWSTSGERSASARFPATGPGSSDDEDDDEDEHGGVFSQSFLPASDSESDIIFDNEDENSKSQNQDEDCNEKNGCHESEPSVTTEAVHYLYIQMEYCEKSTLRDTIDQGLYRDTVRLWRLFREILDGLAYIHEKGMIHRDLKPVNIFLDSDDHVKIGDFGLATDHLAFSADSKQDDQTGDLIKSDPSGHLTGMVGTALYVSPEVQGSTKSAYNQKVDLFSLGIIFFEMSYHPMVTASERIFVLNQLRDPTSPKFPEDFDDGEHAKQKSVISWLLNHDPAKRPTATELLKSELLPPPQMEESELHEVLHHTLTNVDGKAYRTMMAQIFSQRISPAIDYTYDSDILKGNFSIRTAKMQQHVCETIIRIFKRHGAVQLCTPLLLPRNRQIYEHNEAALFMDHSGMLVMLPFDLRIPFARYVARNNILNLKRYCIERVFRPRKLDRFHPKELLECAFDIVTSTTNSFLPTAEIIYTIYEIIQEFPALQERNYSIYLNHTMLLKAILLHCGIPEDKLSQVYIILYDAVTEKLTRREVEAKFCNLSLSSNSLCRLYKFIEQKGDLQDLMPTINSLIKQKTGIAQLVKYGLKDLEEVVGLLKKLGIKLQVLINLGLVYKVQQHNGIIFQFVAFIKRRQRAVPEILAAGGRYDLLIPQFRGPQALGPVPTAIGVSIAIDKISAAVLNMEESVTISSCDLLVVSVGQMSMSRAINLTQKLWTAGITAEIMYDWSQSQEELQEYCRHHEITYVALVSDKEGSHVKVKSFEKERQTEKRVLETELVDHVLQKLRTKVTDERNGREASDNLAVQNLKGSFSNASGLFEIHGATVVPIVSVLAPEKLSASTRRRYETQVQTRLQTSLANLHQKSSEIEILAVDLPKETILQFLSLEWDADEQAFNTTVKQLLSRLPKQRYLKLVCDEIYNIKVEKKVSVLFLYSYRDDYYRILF
SRSF protein kinase 3 (Homo sapiens), sequence (Q9UPE1 whole entry): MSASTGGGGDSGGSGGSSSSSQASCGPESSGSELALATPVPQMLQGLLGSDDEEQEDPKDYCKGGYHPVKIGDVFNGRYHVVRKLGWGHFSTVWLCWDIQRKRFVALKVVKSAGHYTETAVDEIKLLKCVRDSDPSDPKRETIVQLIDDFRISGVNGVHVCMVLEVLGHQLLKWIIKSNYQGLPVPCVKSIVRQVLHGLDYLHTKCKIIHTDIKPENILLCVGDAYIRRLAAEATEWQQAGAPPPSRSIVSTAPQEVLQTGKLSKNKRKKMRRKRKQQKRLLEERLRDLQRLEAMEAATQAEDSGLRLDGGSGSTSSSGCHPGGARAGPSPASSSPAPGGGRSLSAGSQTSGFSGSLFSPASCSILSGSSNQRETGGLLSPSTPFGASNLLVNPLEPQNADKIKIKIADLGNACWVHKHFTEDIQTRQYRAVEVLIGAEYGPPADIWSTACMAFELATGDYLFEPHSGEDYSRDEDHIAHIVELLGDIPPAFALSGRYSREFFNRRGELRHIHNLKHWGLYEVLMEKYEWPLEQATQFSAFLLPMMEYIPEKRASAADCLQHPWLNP
Mitogen-activated protein kinase kinase kinase kinase 2 MAP4K2 (Homo sapiens), sequence (Q12851 whole entry, looked up): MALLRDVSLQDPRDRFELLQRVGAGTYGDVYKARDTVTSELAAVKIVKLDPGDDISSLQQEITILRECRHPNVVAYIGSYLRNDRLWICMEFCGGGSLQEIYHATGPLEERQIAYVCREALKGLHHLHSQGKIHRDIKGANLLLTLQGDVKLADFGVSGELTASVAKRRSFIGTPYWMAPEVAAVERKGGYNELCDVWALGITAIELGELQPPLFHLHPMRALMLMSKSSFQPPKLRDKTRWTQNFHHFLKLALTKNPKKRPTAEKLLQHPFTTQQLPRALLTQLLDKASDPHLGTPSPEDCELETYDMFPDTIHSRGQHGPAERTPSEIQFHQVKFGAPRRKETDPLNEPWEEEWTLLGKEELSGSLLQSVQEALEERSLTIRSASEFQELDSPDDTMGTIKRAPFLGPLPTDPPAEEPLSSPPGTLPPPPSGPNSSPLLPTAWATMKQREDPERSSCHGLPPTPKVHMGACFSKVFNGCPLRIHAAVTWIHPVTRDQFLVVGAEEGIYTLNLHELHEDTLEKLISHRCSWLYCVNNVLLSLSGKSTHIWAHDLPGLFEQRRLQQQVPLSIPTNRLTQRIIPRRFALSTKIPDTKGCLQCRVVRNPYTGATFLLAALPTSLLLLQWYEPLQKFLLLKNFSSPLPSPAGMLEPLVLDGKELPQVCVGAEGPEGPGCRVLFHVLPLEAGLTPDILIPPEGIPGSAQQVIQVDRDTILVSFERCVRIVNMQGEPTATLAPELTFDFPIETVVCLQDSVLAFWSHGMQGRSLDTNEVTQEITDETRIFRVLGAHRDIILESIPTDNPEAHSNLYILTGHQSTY
Calcium/calmodulin-dependent protein kinase type 1D (Homo sapiens), sequence (Q8IU85 whole entry, looked up): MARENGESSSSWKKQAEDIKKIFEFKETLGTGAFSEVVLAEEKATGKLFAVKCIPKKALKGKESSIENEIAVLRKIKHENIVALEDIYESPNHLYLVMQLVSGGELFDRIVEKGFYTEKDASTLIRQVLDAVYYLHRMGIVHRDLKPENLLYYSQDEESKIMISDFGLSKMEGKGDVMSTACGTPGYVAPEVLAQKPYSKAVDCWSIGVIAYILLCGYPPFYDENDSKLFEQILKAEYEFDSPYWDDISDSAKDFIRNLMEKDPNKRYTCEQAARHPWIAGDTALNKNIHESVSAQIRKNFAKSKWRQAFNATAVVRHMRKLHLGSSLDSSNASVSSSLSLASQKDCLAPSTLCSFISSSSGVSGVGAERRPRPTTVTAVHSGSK
Cyclin-dependent kinase-like 2 (Homo sapiens), sequence (Q92772 whole entry): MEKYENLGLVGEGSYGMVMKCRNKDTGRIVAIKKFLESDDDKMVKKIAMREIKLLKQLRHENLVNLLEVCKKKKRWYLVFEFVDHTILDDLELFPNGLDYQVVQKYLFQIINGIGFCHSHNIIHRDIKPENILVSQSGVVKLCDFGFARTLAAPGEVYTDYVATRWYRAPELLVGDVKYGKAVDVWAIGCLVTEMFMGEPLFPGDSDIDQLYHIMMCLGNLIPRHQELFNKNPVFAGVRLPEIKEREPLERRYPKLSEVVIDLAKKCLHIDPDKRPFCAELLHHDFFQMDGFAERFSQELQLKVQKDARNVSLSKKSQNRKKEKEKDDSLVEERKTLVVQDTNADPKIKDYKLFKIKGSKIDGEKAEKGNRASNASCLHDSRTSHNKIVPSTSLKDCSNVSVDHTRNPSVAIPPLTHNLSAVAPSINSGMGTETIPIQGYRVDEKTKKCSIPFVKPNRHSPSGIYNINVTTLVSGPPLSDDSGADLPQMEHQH
3-hydroxy-3-methylglutaryl-coenzyme A reductase (Homo sapiens), sequence (P04035 whole entry): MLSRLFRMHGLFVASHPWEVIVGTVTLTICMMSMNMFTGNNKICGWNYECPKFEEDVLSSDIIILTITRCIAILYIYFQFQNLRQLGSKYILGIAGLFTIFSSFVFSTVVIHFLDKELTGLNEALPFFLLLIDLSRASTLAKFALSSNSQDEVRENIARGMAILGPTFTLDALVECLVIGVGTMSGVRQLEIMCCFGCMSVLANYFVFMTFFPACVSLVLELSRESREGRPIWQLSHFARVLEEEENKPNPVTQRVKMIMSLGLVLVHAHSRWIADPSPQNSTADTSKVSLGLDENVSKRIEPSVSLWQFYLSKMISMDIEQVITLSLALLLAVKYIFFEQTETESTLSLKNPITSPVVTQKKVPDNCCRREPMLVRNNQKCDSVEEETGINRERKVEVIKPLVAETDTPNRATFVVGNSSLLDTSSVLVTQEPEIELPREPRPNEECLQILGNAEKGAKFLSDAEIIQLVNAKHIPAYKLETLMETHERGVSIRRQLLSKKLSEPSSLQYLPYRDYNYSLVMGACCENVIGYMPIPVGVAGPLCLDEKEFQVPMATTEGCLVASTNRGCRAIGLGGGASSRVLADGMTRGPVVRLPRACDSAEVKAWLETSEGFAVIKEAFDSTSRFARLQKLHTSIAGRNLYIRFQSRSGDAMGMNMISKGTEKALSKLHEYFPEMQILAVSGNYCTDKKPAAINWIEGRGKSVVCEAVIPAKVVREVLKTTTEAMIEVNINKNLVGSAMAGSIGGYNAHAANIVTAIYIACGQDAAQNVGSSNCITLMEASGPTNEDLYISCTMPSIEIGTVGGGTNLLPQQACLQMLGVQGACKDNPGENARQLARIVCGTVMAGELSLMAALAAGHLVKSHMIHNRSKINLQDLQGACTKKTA

By inhibition is commonly meant the drop in the measured response relative to a control, in per cent. For the molecule `O=C1NCCCC1N1Cc2cc(C3CCN(C(=O)CCCCCN4CCC(c5ccc(Oc6nn7cnnc7c7c6CCCC7)cc5)CC4)CC3)ccc2C1=O` (configuration not stated), the inhibition in [1] came out at 17.6%; in [2] it was 14.4%; in assay [3], 12.1%; in assay [4], 11.6%; in [5] it was 11.2%; in assay [6], 10.9%. The inhibition was 10.8% in assay [7] and -6% in [8].

On to `O=C1CCC(N2Cc3cc(C4CCN(C(=O)CCCCCN5CCC(c6ccc(Oc7nn8cnnc8c8c7CCCC8)cc6)CC5)CC4)ccc3C2=O)C(=O)N1` (configuration not stated), for which the inhibition in [9] turned out to be 19.4%; in [10], 17.2%; in [11], 15.7%; in assay [12] it was 11.4%; in assay [13], 10.3%; in assay [14] it was 12%. Moreover, the inhibition in [15] is 5%; in assay [16] it was 11.3%; in assay [17] it was -1%.
